What all share (type): in vivo, rat
The test system of assay [1] is Male Sprague-Dawley rats. Briefly: Morphine tolerance model, acute intrathecal morphine evaluated by thermal and mechanical test paradigms. The conditions noted are these: chronic subcutaneous morphine 10 mg/kg twice daily for 5 days; noxious thermal and mechanical testing paradigms. The procedure:
(§1) Male Sprague-Dawley rats (175-200 grams, Harlan, Indianapolis, Ind.) were divided into two groups (n=8 per group). Rats received subcutaneous injections of either saline or morphine (10 mg/kg; Sigma, St. Louis, Mo.) twice daily at 0800 to 0900 and 1600-1700 hour for 5 days in order to induce opioid tolerance. Chronic morphine withdrawal-induced hyperalgesia and allodynia were assessed in the animals 16 hours after the last injection of morphine. Following the recording of morphine withdrawal-induced hyperalgesia and allodynia, animals were treated with morphine (5 microgram) acutely via lumbar intrathecal injection to study the expression of morphine tolerance. Acute analgesic activity or intrathecal morphine in morphine-tolerant and chronic aline-treated rats were evaluated by mechanical (Analgesy-Meter) and thermal (tail-flick) test paradigms. Behaviors recorded prior to the acute administration of intrathecal morphine served as the basal latency measures.
With an understanding of the effects of morphine alone, separate groups of rats (n=8) received with saline or morphine (10 mg/kg subcutaneously, twice daily for 5 days) and also received once daily injections (at 1100 to 1200 hour) of propentofylline (1 and 10 micrograms) or saline via direct lumbar puncture during the induction of morphine tolerance. Again, chronic morphine withdrawal-induced hyperalgesia and allodynia were assessed in the animals 16 hours after the last subcutaneous morphine injection. […] As before, the acute analgesic activity of intrathecal morphine in morphine-tolerant and saline-injected rats was evaluated by mechanical (Analgesy-Meter) and thermal (tail-flick) test paradigms. Behavior recorded prior to the acute administration of intrathecal morphine served as the basal latency.
(§2) In blinded testing, rats were subjected to sequential series of 10 tactile stimulations to the dorsal surface of the ipsilateral hindpaw using […] von Frey filaments (Stoelting Co., WoodDale, Ill.) sequentially. The number of foot withdrawals to this normally non-noxious stimulus determined mechanical allodynia. Mechanical sensitivity was assessed by recording the total number of responses elicited during three successive trials separated by at least 10 minutes. The pressure required to elicit paw withdrawal, the paw pressure threshold was determined.
Thermal nociceptive thresholds were evaluated by the hot water tail-flick test that has been described previously (Bian, D. et al. 1999. Brain Res. 831:55-63). […] Again, the total number of responses elicited during three successive trials separated by at least 10 minutes was recorded and then expressed as the % maximal possible effect. […]

Assay [2] concerns IL-6 protein. Put plainly: Cytokine protein estimation by ELISA at L5 spinal cord. The note with it: ELISA, propentofylline 10 μg intrathecally 5 days, morphine 10 mg/kg twice daily 5 days. The method, then:
(§3) Quantitative determination of IL-1β, TNF-α and IL-6 protein was performed on the L5 spinal cord of the rats. […] Briefly, weighed sections of L5 spinal cord were homogenized in a homogenization buffer consisting of a protease inhibitor using the a Power Gen 125 tissue tearer (Fisher Scientific, Suwanee, Ga.). Samples were spun at 20,000×g for 30 minutes at 4° C. Supernatant was aliquoted and stored at −80° C. for future protein quantification. IL-1β and TNF-α (R&D Systems, Minneapolis, Minn.) and IL-6 (Biosource, Camarillo, Calif.) protein concentrations were determined utilizing the quantitative sandwich enzyme immunoassay.

For assay [3], the system named is IL-1β protein. The assay is described as above. The conditions noted are these: ELISA, propentofylline 10 μg intrathecally 5 days, morphine 10 mg/kg twice daily 5 days. The procedure: as §3
(In general: An ELISA detects its analyte on a solid surface through an enzyme-linked reagent.)

The test system of assay [4] is TNF-α protein. The assay is described as above. The conditions noted are these: ELISA, propentofylline 10 μg intrathecally 5 days, morphine 10 mg/kg twice daily 5 days. The procedure:
as §3

The subject of assay [5] is Mac-1 mRNA. Briefly: Real-time PCR of Mac-1 mRNA at L5 lumbar spinal cord. The note with it: compared to saline-treated controls; morphine 10 mg/kg twice daily 5 days, or propentofylline 10 micrograms intrathecally 5 days in saline-treated rats. The method, then: (§4) Total RNA was treated with DNase I (Ambion, Austin, Tex.) to remove DNA contamination before cDNA synthesis. The reverse transcription (RT) was carried out in a 100 μl total reaction volume containing RT buffer, dNTPs, multiscribe reverse transcriptase, RNase-free water and 10 μg of DNase-treated total RNA. The RT reaction was carried out at 25° C. for 10 minutes, 37° C. for 120 minutes, and 95° C. for 5 minutes. Real-time PCR analysis was performed using gene-specific primers and probes that were designed and blasted against GENBANK to confirm their species and gene specificity. […] The real-time PCR reactions were carried out using Platinum Taq DNA polymerase, 20 mM Tris HCl (pH 8.4), 50 mM KCl, 3 mM MgCl2, 200 μM dGTP, dCTP, and dATP, 400 μM of dUTP and 1 U uracyl DNA glycosylase (UDG), 900 nM forward and reverse primers, 300 nM TaqMan probe, and 10-fold dilution of cDNA (50 ng) from the RT step. Primers and probes for glyceraldehyde-3-phosphate (GADPH), GFAP and Mac-1 were obtained form Applied Biosystems (LaJolla, Calif.). The relative standard curves generated by plotting the threshold value versus the log of the amount of total cDNA added to the reaction (1-10000 pg) were used to compare the relative amount of target genes from control and chronic morphine-treated animals.
On the technique in general: In qPCR the cycle at which signal appears reflects the starting amount.

The subject of assay [6] is Male Sprague-Dawley rats. Put plainly: Mechanical allodynia (von Frey filaments), morphine withdrawal. The procedure:
as §1
(§5) With an understanding of the effects of morphine alone, separate groups of rats (n=8) received with saline or morphine (10 mg/kg subcutaneously, twice daily for 5 days) and also received once daily injections (at 1100 to 1200 hour) of propentofylline (1 and 10 micrograms) or saline via direct lumbar puncture during the induction of morphine tolerance. Again, chronic morphine withdrawal-induced hyperalgesia and allodynia were assessed in the animals 16 hours after the last subcutaneous morphine injection. Following the recording of morphine withdrawal-induced hyperalgesia and allodynia, animals were treated with morphine (5 micrograms) acutely via lumbar puncture to study the expression of morphine tolerance. As before, the acute analgesic activity of intrathecal morphine in morphine-tolerant and saline-injected rats was evaluated by mechanical (Analgesy-Meter) and thermal (tail-flick) test paradigms. Behavior recorded prior to the acute administration of intrathecal morphine served as the basal latency.
Mechanical sensitivity was measured as the frequency of foot withdrawals elicited by a defined mechanical stimulus. Each rat, under unrestrained conditions, was placed beneath an inverted, ventilated Plexiglas cage upon an elevated aluminum screen surface with 1 cm mesh openings. Animals had been previously acclimated to the environment and the experimenter.
as §2

For assay [7], the system named is IL-6 mRNA. Put plainly: RNase protection assay, cytokine mRNA at L5 lumbar spinal cord. The note with it: ratio of expression compared with saline-treated animals (=1), propentofylline 10 μg intrathecally 5 days, morphine 10 mg/kg twice daily 5 days.
Procedure: (§6) After behavioral testing for reactions to the combined treatment, rats were sacrificed and decapitated. An 18-gauge needle was inserted into the caudal end of the vertebral column and the spinal cord was expelled with ice-cold phosphate-buffered saline. The spinal cord was frozen immediately on dry ice and stored at −80° C. until homogenization. The L5 lumbar spinal cord was isolated from the intact frozen cord at the time of mRNA and protein quantification. Total RNA was isolated from the L5 spinal cord by the TRIzol extraction method (Invitrogen Corporation, Carlsbad, Calif).
(§7) Assessment of the temporal cytokine mRNA expression in the L5 lumber spinal cord was performed using a Ribonuclease Protection Assay technique. A Multiprobe RPAse kit was used (Pharmingen, San Diego, Calif.). Total RNA (15 μg) was hybridized to ^32P-labeled antisense RNA probes transcribed using the rat cytokine-1 (rCK-1) multiprobe template set resulting in double-stranded target RNA. After Rnase digestion, protected RNA and probe were resolved on a denaturing polyacrylamide gel and visualized by overnight autoradiography. Quantitative image analysis was employed to compare mRNA levels based on band intensities for each cytokine. The intensity of each band was measured using image analysis software and assigned an arbitrary unit based on the measured intensity levels. The value for the normalized quantity for each band was obtained by dividing by the L32 house-keeping gene control. Individual mRNA concentration was calculated as the ratio of the expression compared with saline-treated animals in which normal values were weighted as 1.
The subject of assay [8] is Male Sprague-Dawley rats. Briefly: Paw pressure test (Analgesy-Meter), morphine withdrawal-induced mechanical hyperalgesia. The procedure: as §1, §5, §2
The subject of assay [9] is GFAP mRNA. Put plainly: Real-time PCR of GFAP mRNA at L5 lumbar spinal cord. The note with it: compared to saline-treated controls; morphine 10 mg/kg twice daily 5 days, or propentofylline 10 micrograms intrathecally 5 days in saline-treated rats. The procedure:
as §4

Assay [10] relates to Male Sprague-Dawley rats. Put plainly: Hot water tail-flick test, morphine withdrawal-induced thermal hyperalgesia. The method, then: as §1, §5
Thermal nociceptive thresholds were evaluated by the hot water tail-flick test that has been described previously (Bian, D. et al. 1999. Brain Res. 831:55-63). The test consisted of immersing the tail of the rats in water maintained at 49° C. and then recording the latency to a rapid flick. A 15 second cut-off time was used. Again, the total number of responses elicited during three successive trials separated by at least 10 minutes was recorded and then expressed as the % maximal possible effect. The tester was again blinded to the test groups.
(Thermal pain tests record how soon the animal reacts.)

Assay [11] deals with IL-1β mRNA. Put plainly: RNase protection assay, cytokine mRNA at L5 lumbar spinal cord. The conditions noted are these: ratio of expression compared with saline-treated animals (=1), propentofylline 10 μg intrathecally 5 days, morphine 10 mg/kg twice daily 5 days.
Procedure: as §6, §7
[12] abbreviates: 16 hours after last morphine injection (10 mg/kg s.c. twice daily 5 days), propentofylline 1 and 10 micrograms intrathecally for 5 days during induction of tolerance.
[13] abbreviates: 16 hours after last injection, morphine 10 mg/kg s.c. twice daily 5 days and/or propentofylline 10 micrograms intrathecally once daily 5 days.

As to `CN1CC[C@]23c4c5ccc(O)c4O[C@H]2[C@@H](O)C=C[C@H]3[C@H]1C5` [morphine], the “anti-nociceptive tolerance to acute intrathecal morphine (5 micrograms)” value in assay [1] was “demonstrated anti-nociceptive tolerance”. The “IL-6 protein level at the L5 lumbar spinal cord” value in assay [2] was “significantly increased”; in [2] (listed as Morphine), 359 ± 62.4. Moreover, the “IL-1β protein level at the L5 lumbar spinal cord” value was “significantly increased” in assay [3] and 73.5 ± 9.2 in [3] (listed as Morphine). In addition, the “TNF-α protein level at the L5 lumbar spinal cord” value is recorded as “not significantly increased” in assay [4] and 36.6 ± 5.6 in assay [4] (listed as Morphine). Also, the “Mac-1 mRNA levels at the L5 lumbar spinal cord” value in assay [5] is reported as “significant increases”. Besides, the “morphine withdrawal-induced mechanical allodynia” value in assay [6] (setting [12]) was “led to withdrawal-induced thermal and mechanical hyperalgesia and mechanical allodynia”. For the same compound, the “Mechanical allodynia (2 grams)” value in assay [6] (number of foot withdrawals, 2 grams von Frey filament, morphine 10 mg/kg s.c. twice daily 5 days and/or propentofylline 10 micrograms intrathecally) came to 3.9 ± 0.5. The “Mechanical allodynia (12 grams)” value in [6] (number of foot withdrawals, 12 grams von Frey filament, morphine 10 mg/kg s.c. twice daily 5 days and/or propentofylline 10 micrograms intrathecally) is 6.9 ± 0.7. Moreover, the “IL-6 mRNA at the L5 lumbar spinal cord” value in assay [7] is reported as “significantly increased”; in [7] (listed as Morphine), 1.85 ± 0.16. In addition, the Paw pressure latency in assay [8] (setting [13]) stood at 69.8 ± 4.8 grams. In addition, the “morphine withdrawal-induced mechanical hyperalgesia” value in [8] (setting [12]) was “led to withdrawal-induced thermal and mechanical hyperalgesia”. The “GFAP mRNA levels at the L5 lumbar spinal cord” value in assay [9] is recorded as “significant increases”. The same compound registered a Tail-flick latency in assay [10] (setting [13]) of 3.7 ± 0.2 s. Besides, in [10] (setting [12]), the “morphine withdrawal-induced noxious thermal hyperalgesia” value is “led to withdrawal-induced thermal and mechanical hyperalgesia”. The “IL-1β mRNA at the L5 lumbar spinal cord” value is “significantly increased” in assay [11] and 1.92 ± 0.14 in assay [11] (listed as Morphine).

These data come from patent US7763626B2, “Compositions and method for enhancing the therapeutic activity of opiods in treatment of pain” (Trustees of Dartmouth College, priority 2004, dated 2010).
